Patent US20250161253A1, “NUTRITIONAL PRODUCT” (VITAFLO (INTERNATIONAL) LTD, priority 2012, published 2025)

Tests used:
[1] = test system: SH-SY5Y cells; test: Complex I activity in SH-SY5Y cells; type: cell-based, human; settings: 250 μM, 6 days
Method: In order to gain further independent insight into mitochondrial function, the activity of the respiratory chain enzyme, Complex I, was also evaluated. In a second experiment, cells were exposed to decanoic acid (250 μM, dissolved in 0.5% DMSO) for 6 days. The cells were subsequently harvested, and the activity of Complex I was determined. Each experiment was repeated 5 times, and the activity was expressed as nmol/min/mg of cellular protein.

[2] = test system: primary human fibroblasts; test: citrate synthase activity in primary human fibroblasts; type: cell-based; settings: 250 μM, 6 days
Method: Finally, the effect of decanoic acid was validated in an independent cell line. Primary cultures of human fibroblasts were exposed to decanoic acid at a concentration of 250 μM for 6 days. Following the incubation, citrate synthase activity was again assessed.

[3] = test system: SH-SY5Y cells; test: citrate synthase activity in SH-SY5Y cells (marker of mitochondrial enrichment); type: cell-based, human; settings: 6 days; for effect on citrate synthase activity compared to control cells (in words): 50-300 μM
Method: Mitochondrial enrichment was estimated by evaluation of citrate synthase activity (corrected for total cellular protein content). This enzyme is localised at the mitochondria, comprises part of the TCA cycle and is commonly used as a marker of mitochondrial enrichment. A human neuroblastoma cell line (SH-SY5Y) was utilised throughout this study, except where stated. In brief, cells were exposed to a range (50-300 μM, dissolved in 0.5% DMSO) of either octanoic or decanoic acid concentrations. After 6 days, the cells were harvested and citrate synthase activity was determined. Activity was expressed as nmol/min/mg of cellular protein.

[4] = test system: SH-SY5Y cells; test: electron microscopy analysis of mitochondrial density and morphology in SH-SY5Y cells; type: cell-based, human; settings: 250 μM, p<0.002
Method: Additionally, SH-SY5Y cells were prepared for electron microscopy (EM) analysis to assess mitochondrial density and morphology following treatment with decanoic acid.

Row | SMILES | Complex I activity with respect to control ([1]; p<0.002) | Complex I activity normalised against citrate synthase activity ([1]; p<0.05) | increase in citrate synthase activity [2] [%] | increase in citrate synthase activity compared to control cells ([3]; 250 μM, maximum, p<0.001) [%] | citrate synthase activity ([3]; 250 μM, n = 8, control 105 ± 5) [nmol/min/mg cell protein] | effect on citrate synthase activity compared to control cells (in words) [3] | number of mitochondria per cell (EM) [4]
1 | CCCCCCCCCC(=O)O [Decanoic Acid, decanoic acid] | significant (p<0.002) increase | significant (p<0.05) increase | 45 | 30 | 137 ± 5 | dose dependent | significant (p<0.002) increase
2 | CCCCCCCC(=O)O [Octanoic acid, octanoic acid, reference compound] | – | – | – | – | – | no effect | –
